Legend:
[1] = tested on: NMDA lesion of the dorsal hippocampus in rats; assay: Active allothetic place avoidance (AAPA) after bilateral excitotoxic NMDA lesion of dorsal hippocampus; assay type: in vivo, rat Long-Evans strain; conditions: for NMDA lession Improvement in Cognition in AAPA after NMDA Lession: 1 mg/kg after NMDA lesion
Procedure: In the Experimental Part 2 were used adult (3 months old, 300-400 g) male rat Long-Evans strain. The animals come from herds Institute of Physiology ASCR. The rats were housed in clear plastic boxes with the same light cycle as in mice. Animals had free access to food and water. All experiments were carried out in the light of clay. All experiments were carried out in accordance with the Law on protection of animals against cruelty.
The anesthetized rats were used in operations isoflurane (3.5%, Baxter). To recall excitotoxic lesion of the dorsal hippocampus was applied 0.05 mol·l^−1 solution of NMDA (Sigma-Aldrich) in 0.4 mol·l^−1 phosphate buffer solution prepared by mixing 356 g Na2HPO4.12H2O (Mw358.14) in 4.2 l of distilled water and a solution of 62.4 g NaHPO4. 2H2O (Mw156.01) in 0.8 l of distilled water. The pH of the resulting solution of NMDA was adjusted to 7.4 with NaOH.
In this experiment, the neuroprotective effects were evaluated for amphiphilic steroid compounds. The procedure was performed according to Neuropharmacology 61, 61-68 (2011)
The rats were randomly divided into eleven groups. The control group included operated animals, which were injected by phosphate buffer […] into the hippocampus. In the second group, the animals had NMDA lesions of the hippocampus. The animals of the third group were applied clinically used NMDA antagonist memantine at a dose of 5 mg/kg after NMDA lesion. The other groups were administered the compounds at a dose of 1 mg/kg.
The test was performed in rotating arena with prohibited sector in the form of a circular sector (60°). If the rat entered the sector, its limbs received weak electrical impulse.
Test memory and spatial cognition in rats using AAPA was evaluated over four sessions, which are in healthy rats sufficient to achieve asymptotic level (Behay. Brain. Res. 189, 139-144 (2008)). To evaluate memory and spatial cognition was used data from the fourth session, and the number of entries into the forbidden sector and the maximum avoidance sector. […] After the experiment, the localization of the lesion was histologically verified.
Data were analyzed using the non parametric test of Maim Whitney criteria using the GraphPad. The difference was considered significant for p<0.05, for a non-significant tendency then for 0.05<p<0.075.

[2] = tested on: laboratory mice, strain CD-1; assay type: in vivo; conditions: intraperitoneally, 1 mg/kg; note: key: −: the desired effect was not observed; −/+: the desired effect was insufficient; +: the desired effect was observed
Procedure: (§1) In the Experimental Part 1 were used adults (30-35 g) male laboratory mice, strain CD-1 from Velaz facility, Czech Republic. Mice were housed in plastic boxes with a 12-hour light cycle (lights on at 7:00 pm). Mice had free access to food and water.
Thus there were prepared solutions of the four steroids for application rates of 0.1, 1, 10 and 100 mg/kg.
Laboratory mouse was chosen as a model organism for this experiment. The following experiments were performed as described in Front Behay. Neurosci.
The purpose of the primary behavioral testing was quickly determined the effect of compounds on CNS dependent functions and any signs of toxicity. A simplified modification Irwin test was selected with respect to the behavioral profile of NMDA receptor antagonists. Mice were tested individually. The study drug was administered intraperitoneally (Table 3) at a dose of 1 mg/kg. The control group consisted of individuals that received the CDX solution or saline.

[3] = tested on: laboratory mice, strain CD-1; assay: Open field test (locomotor activity, sedative effect); for Open Field Test No Evidence of Hyperlocomotion: key: −: the desired effect was not observed; −/+: the desired effect was insufficient; +: the desired effect was observed; for Sedative Effect The Rapid Onset of Sedation at a Dose of 100 mg/kg: key: −: the desired effect was not observed; −/+: the desired effect was insufficient; +: the desired effect was observed; assay type: in vivo; conditions: for pathway in open field: dose 10 and 100 mg/kg, vs intact mice; for locomotor activity over time: higher dose of 10 resp. 100 mg/kg; for Open Field Test No Evidence of Hyperlocomotion / Sedative Effect The Rapid Onset of Sedation at a Dose of 100 mg/kg: intraperitoneally; for Open Field Test No Evidence of Hyperlocomotion: 0.1-100 mg/kg; for hyperlocomotion in open field: lower doses (below 10 mg/kg)
Procedure: as §1
Amphiphilic steroid compounds were dissolved in a solution of 3 g (2-hydroxypropyl)-β-cyclodextrin (CDX, Sigma-Aldrich) and 157 mg of citric acid ([…], Sigma-Aldrich) in 30 ml of distilled water, the pH was adjusted to 7.4 using sodium hydroxide (NaOH, Sigma-Aldrich). Thus there were prepared solutions of the four steroids for application rates of 0.1, 1, 10 and 100 mg/kg.
The efficacy of the studied compounds was compared to known NMDA antagonist is memantine (Sigma-Aldrich) at a dose of 5 mg/kg in rats, ketamine (Vétoquinol) at 10 mg/kg and dizocilpine (MK-801) (Sigma-Aldrich) at a dose of 0.3 mg/kg in mice. These three compounds were dissolved in saline (B Braun).
The substances at dose 0.1-100 mg/kg were administered before the test to mice intraperitoneally. As controls were used intact mice and mice that received CDX solution. Also, MK-801 (0.3 mg/kg) was used for comparison of effects of noncompetitive antagonist of NMDA receptors. From the experiment was evaluated overall track anywhere in the arena as an indicator of locomotor activity. In addition, it was judged a ten-minute segments track during each experiment. Based on these values, it was possible to determine the latency time of onset of action and changes in locomotor activity over time.
In this arrangement, the sedative effect of the studied compounds at the highest dose was evaluated. […] Over time was monitored locomotor activity and possible changes characterized by tremor, ataxia, restlessness, or sedation or general anesthesia (absence of response to stimuli, decreased muscle tone).

[4] = tested on: laboratory mice, strain CD-1; assay: Passive avoidance test (aversive motivated memory); assay type: in vivo; note: key: −: the desired effect was not observed; −/+: the desired effect was insufficient; +: the desired effect was observed
Procedure: as §1
Aversive motivated memory test was evaluated on the basis of latency input into the preferred, but unpleasant sensation associated with delivery device.

[5] = 1 mg/kg after surgery, vs NMDA group

| Compound | maximum time avoiding the sector, fourth session of AAPA [1, 5] | number of entries into the forbidden sector, fourth session of AAPA [1, 5] | Behavioural Test No Evidence of Toxicity [2] | signs of sleepiness and overall sedation ([3]; 10 resp. 100 mg/kg, between the 20th and 40th minute) | pathway in open field [3] | locomotor activity over time [3] | Open Field Test No Evidence of Hyperlocomotion [3] | Sedative Effect The Rapid Onset of Sedation at a Dose of 100 mg/kg [3] | hyperlocomotion in open field [3] | Passive Avoidance Test No Memory Violation [4] | NMDA lession Improvement in Cognition in AAPA after NMDA Lession [1] |
| --- | --- | --- | --- | --- | --- | --- | --- | --- | --- | --- | --- |
| C[C@@]12CCC[C@H]1[C@@H]1CC[C@@H]3C[C@H](OC(=O)[C@@H](N)CCC(=O)O)CC[C@]3(C)[C@H]1CC2 [Compound 130, (4S)-4-Amino-5-(((3R,5R,8S,9S,10S,13S,14S)-10,13-dimethylhexadecahydro-1H-cyclopenta[a]phenanthren-3-yl)oxy)-5-oxopentanoic acid] | significantly increased | significant reduction | + | most pronounced | significant reduction | significant decrease | + | + | not (unlike groups with dizocilpine) observed hyperlocomotion | + |  |
| C[C@@]12CCCCC1[C@@H]1CC[C@@H]3C[C@H](OC(=O)[C@@H](N)CCC(=O)O)CC[C@]3(C)[C@H]1CC2 (stereo partly drawn) [Compound 106, (4S)-4-Amino-5-(((2R,4aS,4bS,6aS,10bS,12aR)-4a,6a-dimethyloctadekahydrochrysen-2-yl)oxy)-5-oxopentanoic acid] |  |  | + |  | significant reduction | significant decrease |  | − |  | + | − |
| Pyridinium (3S,3aS,5bR,7aR,9R,11aS,11bS,13aR)-3,11a-dimethylhexadecahydro-1H,3H-naphtho[2′,1′:4,5]indeno[1,7a-c]furan-9-yl 9-sulfate [Compound 124] |  |  | + |  | significant reduction | significant decrease | + | − | not (unlike groups with dizocilpine) observed hyperlocomotion | −/+ | − |

From patent publication US10017535B2, “Amphiphilic compounds with neuroprotective properties” (USTAV ORGANICKE CHEMIE A BIOCHEMIE AV CR, v.v.i., priority 2014, dated 2018)
